Source: patent publication US10485800B2, “Mixed lineage kinase inhibitors for HIV/AIDS therapies” (UNIVERSITY OF ROCHESTER, priority 2012, dated 2019)
pIC50: −log10 of the molar value.

Molecular target: MLK3 (Homo sapiens (Human), UniProt Q16584)
Experiment: Radiometric filter plate MLK3 assay
Format: biochemical
Conditions: 2 μM cold ATP (Km), 1 μM inactive MKK7b, twenty minute incubation; read-out: MK3 IC50
Protocol: After a twenty minute incubation, the reactions were washed through filter plates and read on a scintillation counter. Results are shown in Table 9 below, in which +++ indicates ≤0.1 μM, ++ indicates >0.1 μM and ≤1 μM, and + indicates >1 μM.

Sequence of MLK3 (Q16584 whole entry): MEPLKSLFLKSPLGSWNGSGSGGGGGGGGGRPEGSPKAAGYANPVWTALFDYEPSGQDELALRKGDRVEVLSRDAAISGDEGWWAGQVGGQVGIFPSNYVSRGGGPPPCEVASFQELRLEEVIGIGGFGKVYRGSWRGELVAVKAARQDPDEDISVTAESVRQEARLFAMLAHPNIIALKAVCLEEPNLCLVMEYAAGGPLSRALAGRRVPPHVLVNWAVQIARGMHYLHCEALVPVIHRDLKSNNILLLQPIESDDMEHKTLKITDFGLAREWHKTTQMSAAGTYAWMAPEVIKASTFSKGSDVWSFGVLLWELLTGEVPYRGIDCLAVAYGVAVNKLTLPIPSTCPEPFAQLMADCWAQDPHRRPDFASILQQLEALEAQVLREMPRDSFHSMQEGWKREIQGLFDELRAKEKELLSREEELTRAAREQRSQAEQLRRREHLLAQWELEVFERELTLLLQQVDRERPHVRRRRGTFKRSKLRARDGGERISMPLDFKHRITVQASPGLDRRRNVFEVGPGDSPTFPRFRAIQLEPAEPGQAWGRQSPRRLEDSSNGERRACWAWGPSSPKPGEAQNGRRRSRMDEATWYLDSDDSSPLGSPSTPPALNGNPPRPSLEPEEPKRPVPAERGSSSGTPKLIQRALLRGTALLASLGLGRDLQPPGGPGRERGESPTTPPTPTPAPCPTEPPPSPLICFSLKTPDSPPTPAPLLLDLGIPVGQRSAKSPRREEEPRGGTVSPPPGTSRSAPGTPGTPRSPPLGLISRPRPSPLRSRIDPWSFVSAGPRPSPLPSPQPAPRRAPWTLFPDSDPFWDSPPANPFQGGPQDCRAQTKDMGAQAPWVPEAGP

pIC50	Compound
> 7.00	CC(=O)Nc1ccc(-c2cnc3[nH]cc(-c4ccc5[nH]ccc5c4)c3c2)cc1 [Example 3, N-(4-(3-(1H-indol-5-yl)-1H-pyrrolo[2,3-b]pyridin-5-yl)phenyl)acetamide]
> 7.00	COc1cc(-c2cnc3[nH]cc(-c4ccc5[nH]ccc5c4)c3c2)ccc1N [Example 5, 4-(3-(1H-indol-5-yl)-1H-pyrrolo[2,3-b]pyridin-5-yl)-2-methoxyaniline]
> 7.00	CN1CCN(c2cc(-c3cnc4[nH]cc(-c5ccc6[nH]ccc6c5)c4c3)ccn2)CC1 [Example 7, 3-(1H-indol-5-yl)-5-(2-(4-methylpiperazin-1-yl)pyridin-4-yl)-1H-pyrrolo[2,3-b]pyridine]
> 7.00	Nc1ccc(-c2cnc3[nH]cc(-c4ccc5[nH]ccc5c4)c3c2)cc1 [Example 8, 4-(3-(1H-indol-5-yl)-1H-pyrrolo[2,3-b]pyridin-5-yl)aniline]
> 7.00	CS(=O)(=O)Nc1ccc(-c2cnc3[nH]cc(-c4ccc5[nH]ccc5c4)c3c2)cc1 [Example 11, N-(4-(3-(1H-indol-5-yl)-1H-pyrrolo[2,3-b]pyridin-5-yl)phenyl)methanesulfonamide]
> 7.00	COc1cc(-c2cnc3[nH]cc(-c4ccc(N)cc4)c3c2)cc(OC)c1OC [Example 15, 4-(5-(3,4,5-trimethoxyphenyl)-1H-pyrrolo[2,3-b]pyridin-3-yl)aniline]
> 7.00	COc1cc(-c2cnc3[nH]cc(-c4ccc(NC(C)=O)cc4)c3c2)cc(OC)c1OC [Example 16, N-(4-(5-(3,4,5-trimethoxyphenyl)-1H-pyrrolo[2,3-b]pyridin-3-yl)phenyl)acetamide]
> 7.00	COc1cc(-c2cnc3[nH]cc(-c4ccc(N(C)C)nc4)c3c2)cc(OC)c1OC [Example 19, N,N-dimethyl-5-(5-(3,4,5-trimethoxyphenyl)-1H-pyrrolo[2,3-b]pyridin-3-yl)pyridin-2-amine]
< 6.00	Nc1ncc(-c2cnc3[nH]cc(-c4cnc(N)nc4)c3c2)cn1 [Example 20, 5,5′-(1H-pyrrolo[2,3-b]pyridine-3,5-diyl)dipyrimidin-2-amine]
< 6.00	CN(C)c1ccc(-c2cnc3[nH]cc(-c4ccc(F)c(Cl)c4)c3c2)cn1 [Example 22, 5-(3-(3-chloro-4-fluorophenyl)-1H-pyrrolo[2,3-b]pyridin-5-yl)-N,N-dimethylpyridin-2-amine]
> 7.00	COc1cc(-c2cnc3[nH]cc(-c4ccc5c(ccn5C)c4)c3c2)cc(OC)c1OC [Example 24, 3-(1-methyl-1H-indol-5-yl)-5-(3,4,5-trimethoxyphenyl)-1H-pyrrolo[2,3-b]pyridine]
> 7.00	COc1cc(-c2cnc3[nH]cc(-c4ccc(C(N)=O)cc4)c3c2)cc(OC)c1OC [Example 25, 4-(5-(3,4,5-trimethoxyphenyl)-1H-pyrrolo[2,3-b]pyridin-3-yl)benzamide]
> 7.00	COc1ccc(-c2cnc3[nH]cc(-c4ccc(C(N)=O)cc4)c3c2)cc1OC [Example 26, 4-(5-(3,4-dimethoxyphenyl)-1H-pyrrolo[2,3-b]pyridin-3-yl)benzamide]
< 6.00	Nc1ccc(-c2cnc3[nH]cc(-c4ccc(F)c(Cl)c4)c3c2)cn1 [Example 29, 5-(3-(3-chloro-4-fluorophenyl)-1H-pyrrolo[2,3-b]pyridin-5-yl)pyridin-2-amine]
> 7.00	CN(C)Cc1ccc(-c2cnc3[nH]cc(-c4ccc5[nH]ccc5c4)c3c2)cc1 [Example 33, 1-(4-(3-(1H-indol-5-yl)-1H-pyrrolo[2,3-b]pyridin-5-yl)phenyl)-N,N-dimethylmethanamine]
> 7.00	COc1cc(-c2cnc3[nH]cc(-c4ccc5[nH]ccc5c4)c3c2)ccc1OCCN1CCNCC1 [Example 34, 3-(1H-indol-5-yl)-5-(3-methoxy-4-(2-(piperazin-1-yl)ethoxy)phenyl)-1H-pyrrolo[2,3-b]pyridine]
< 6.00	COc1cc(-c2cnc3[nH]cc(-c4ccc5[nH]ccc5c4)c3c2)ccc1OCCN(C)C [Example 35, 2-(4-(3-(1H-indol-5-yl)-1H-pyrrolo[2,3-b]pyridin-5-yl)-2-methoxyphenoxy)-N,N-dimethylethanamine]
